The values below are quoted from earlier work in US20230201147A1, “COCRYSTAL ANTIOXIDANTS OF PROTOCATECHUIC ACID WITH L-THEANINE FOR THE TREATMENT OF OXIDATIVE STRESS AND INFLAMMATORY CONDITIONS” (priority 2020, published 2023).

The test system of the data set is thrombin-stimulated thromboxane formation. The conditions noted are these: whole blood.

Turning to `CCNC(=O)CC[C@H](N)C(=O)O` [L-theanine, N-ethyl-L-glutamine], the “inhibition of thrombin-stimulated thromboxane formation” value was “potent inhibitor”.
